Results as given in ChEMBL document CHEMBL1811787, “Identification of the binding modes of N-phenylphthalimides inhibiting bacterial thymidylate synthase through X-ray crystallography screening” (J Med Chem, 2011).
The source made the active and inactive calls. The rule behind the calls is not given here.

Columns and labels:
Thymidylate synthase [1] = target: T1, Thymidylate synthase (Homo sapiens, UniProt P04818); assay: Inhibition of human thymidylate synthase using N5,N10-methylene tetrahydrofolate at 50 uM by chromogenic assay
Target sequence in this assay (P04818 2-313 limits assumed): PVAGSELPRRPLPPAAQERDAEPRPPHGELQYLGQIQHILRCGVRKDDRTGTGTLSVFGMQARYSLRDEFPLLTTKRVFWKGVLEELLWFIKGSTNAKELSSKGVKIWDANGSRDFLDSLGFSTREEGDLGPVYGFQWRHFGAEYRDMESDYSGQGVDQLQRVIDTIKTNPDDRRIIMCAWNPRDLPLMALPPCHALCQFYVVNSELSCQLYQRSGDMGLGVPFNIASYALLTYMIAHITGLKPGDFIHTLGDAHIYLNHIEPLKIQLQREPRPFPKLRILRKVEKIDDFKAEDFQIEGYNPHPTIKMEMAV

[2] = target: T2, Thymidylate synthase (Enterococcus faecalis (strain ATCC 700802 / V583)) (UniProt Q834R3); assay: Inhibition of Enterococcus faecalis thymidylate synthase using N5,N10-methylene tetrahydrofolate at 50 uM by chromogenic assay
T2 sequence (whole entry): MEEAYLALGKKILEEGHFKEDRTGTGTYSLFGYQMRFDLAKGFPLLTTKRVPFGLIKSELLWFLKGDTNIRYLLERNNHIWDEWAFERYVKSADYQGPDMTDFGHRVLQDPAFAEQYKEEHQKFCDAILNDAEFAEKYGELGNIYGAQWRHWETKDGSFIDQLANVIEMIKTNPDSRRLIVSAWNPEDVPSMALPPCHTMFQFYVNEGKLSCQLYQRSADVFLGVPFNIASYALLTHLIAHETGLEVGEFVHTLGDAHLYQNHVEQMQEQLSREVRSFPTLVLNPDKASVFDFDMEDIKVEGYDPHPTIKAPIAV

[3] = Inhibition of Escherichia coli thymidylate synthase using N5,N10-methylene tetrahydrofolate by chromogenic assay
Thymidylate synthase [4] = target: T3, Thymidylate synthase (Lactobacillus casei, UniProt P00469); assay: Inhibition of Lactobacillus casei thymidylate synthase using N5,N10-methylene tetrahydrofolate by chromogenic assay; parameters: species or system Lacticaseibacillus casei
T3 sequence (P00469 whole entry): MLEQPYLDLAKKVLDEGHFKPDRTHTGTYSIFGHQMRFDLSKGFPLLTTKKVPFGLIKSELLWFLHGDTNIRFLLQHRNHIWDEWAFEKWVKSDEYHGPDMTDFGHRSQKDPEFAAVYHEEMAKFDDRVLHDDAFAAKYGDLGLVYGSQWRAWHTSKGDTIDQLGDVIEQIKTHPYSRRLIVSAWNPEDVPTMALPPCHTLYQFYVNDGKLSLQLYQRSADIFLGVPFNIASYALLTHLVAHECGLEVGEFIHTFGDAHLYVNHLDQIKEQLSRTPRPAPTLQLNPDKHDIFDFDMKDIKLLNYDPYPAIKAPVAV

Thymidylate synthase [5] = target: T4, Thymidylate synthase (Enterococcus faecalis (strain ATCC 700802 / V583), UniProt Q834R3); assay: Inhibition of Enterococcus faecalis thymidylate synthase using N5,N10-methylene tetrahydrofolate by chromogenic assay
T4 sequence (Q834R3 whole entry): T2 sequence (whole entry)

[6] = target: T5, Thymidylate synthase (Lactobacillus casei) (UniProt P00469); assay: Inhibition of Lactobacillus casei thymidylate synthase using N5,N10-methylene tetrahydrofolate at 50 uM by chromogenic assay; conditions: Lacticaseibacillus casei
T5 sequence (whole entry): T3 sequence (P00469 whole entry)

Thymidylate synthase [7] = target: T1, Thymidylate synthase
Target sequence in this assay (P04818 whole entry): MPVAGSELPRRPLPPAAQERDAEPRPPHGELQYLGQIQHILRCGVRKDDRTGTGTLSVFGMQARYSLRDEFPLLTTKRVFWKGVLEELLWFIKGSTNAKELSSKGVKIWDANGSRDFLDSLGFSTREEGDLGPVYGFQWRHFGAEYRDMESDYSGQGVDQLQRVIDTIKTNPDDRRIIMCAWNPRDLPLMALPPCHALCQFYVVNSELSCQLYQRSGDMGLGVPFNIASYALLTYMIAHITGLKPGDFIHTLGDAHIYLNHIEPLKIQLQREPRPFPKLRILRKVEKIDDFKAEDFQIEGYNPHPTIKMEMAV
Description: Inhibition of human thymidylate synthase using N5,N10-methylene tetrahydrofolate by chromogenic assay

CN1C(=O)c2cccc(CNc3ccc(C(=O)c4ccccc4)cc3)c2C1=O
inhibition (Thymidylate synthase [1]): inactive
inhibition [2]: inactive
Ki [3]: 82 µM
Ki (Thymidylate synthase [4]): 14 µM

Cc1cccc2c1C(=O)N(c1ccc(C(=O)O)c(O)c1)C2=O
inhibition [2]: inactive
Ki [3]: 36 µM
Ki (Thymidylate synthase [4]): 14 µM

Cc1cccc2c1C(=O)N(c1cccc(O)c1)C2=O
inhibition (Thymidylate synthase [1]): inactive
Ki (Thymidylate synthase [5]): 61 µM
Ki (Thymidylate synthase [4]): 93 µM

Cc1cccc2c1C(=O)N(c1ccc(C(=N)N)cc1)C2=O
inhibition (Thymidylate synthase [1]): inactive
inhibition [2]: inactive
Ki (Thymidylate synthase [4]): 9 µM

Cc1cc(N2C(=O)c3cccc(C)c3C2=O)ccc1N1C(=O)c2ccc(Cl)cc2C1=O
inhibition (Thymidylate synthase [1]): inactive
inhibition [2]: inactive
Ki [3]: 33 µM
Ki (Thymidylate synthase [4]): 36 µM

Cc1cccc2c1C(=O)N(CCc1cccs1)C2=O
inhibition (Thymidylate synthase [1]): inactive
inhibition [2]: inactive
Ki (Thymidylate synthase [4]): 44 µM

Cc1cccc2c1C(=O)N(c1ccc(C(F)(F)F)cc1)C2=O
inhibition (Thymidylate synthase [1]): inactive
Ki (Thymidylate synthase [5]): 60 µM
Ki [3]: 18 µM
Ki (Thymidylate synthase [4]): 14 µM

Cc1cccc2c1C(=O)N(c1ccnc(Cl)c1)C2=O
inhibition (Thymidylate synthase [1]): inactive
Ki (Thymidylate synthase [5]): 7 µM
Ki [3]: 111 µM
Ki (Thymidylate synthase [4]): 23 µM

Cc1cccc2c1C(=O)N(c1cc(-c3ccccc3)ccc1O)C2=O
Ki (Thymidylate synthase [5]): 2 µM
Ki [3]: 3 µM
Ki (Thymidylate synthase [4]): 3 µM

CCOC(=O)c1ccc(NCc2cccc3c2C(=O)N(C)C3=O)cc1
inhibition (Thymidylate synthase [1]): inactive
Ki (Thymidylate synthase [5]): 109 µM
Ki (Thymidylate synthase [4]): 56 µM

COCCCNCc1cccc2c1C(=O)N(C)C2=O
Ki (Thymidylate synthase [5]): 183 µM
Ki (Thymidylate synthase [4]): 41 µM

Cc1cccc2c1C(=O)N(c1ccc(C(=O)NCC(=O)O)cc1)C2=O
Ki (Thymidylate synthase [5]): 11 µM
Ki [3]: 42 µM
Ki (Thymidylate synthase [4]): 3 µM

CN1C(=O)c2cccc(CNCCc3cccs3)c2C1=O
inhibition (Thymidylate synthase [1]): inactive
inhibition [2]: inactive
Ki [3]: 61 µM

Cc1cccc2c1C(=O)N(c1cccc(C(=O)O)c1)C2=O
inhibition [2]: inactive
Ki (Thymidylate synthase [4]): 69 µM

Cc1cccc2c1C(=O)N(c1cc(C(=O)O)cc(C(=O)O)c1)C2=O
inhibition (Thymidylate synthase [1]): inactive
inhibition [2]: inactive
Ki (Thymidylate synthase [4]): 20 µM

CN1C(=O)c2cccc(CNc3ccc([N+](=O)[O-])c4ccccc34)c2C1=O
inhibition (Thymidylate synthase [1]): inactive
inhibition [2]: inactive
Ki [3]: 92 µM
Ki (Thymidylate synthase [4]): 10 µM

CN1C(=O)c2cccc(CNCCP(=O)(O)O)c2C1=O
inhibition (Thymidylate synthase [1]): inactive
inhibition [2]: inactive
Ki [3]: 14 µM

Cc1cccc2c1C(=O)N(c1nccs1)C2=O
inhibition (Thymidylate synthase [1]): inactive
Ki (Thymidylate synthase [5]): 11 µM
Ki (Thymidylate synthase [4]): 3 µM

Cc1cccc2c1C(=O)N(c1cccc3[nH]ccc13)C2=O
inhibition (Thymidylate synthase [1]): inactive
Ki (Thymidylate synthase [5]): 26 µM
Ki (Thymidylate synthase [4]): 25 µM

Cc1cccc2c1C(=O)OC2=O
inhibition (Thymidylate synthase [1]): inactive
inhibition [2]: inactive
Ki [3]: 49 µM
inhibition [6]: inactive

CN1C(=O)c2cccc(CNc3cccc(S(N)(=O)=O)c3)c2C1=O
inhibition (Thymidylate synthase [1]): inactive
inhibition [2]: inactive
Ki (Thymidylate synthase [4]): 38 µM

O=C1OC(c2ccc(O)c(Cl)c2)(c2ccc(O)c(Cl)c2)c2cccc3cccc1c23
Ki [3]: 0.6 µM

CN1C(=O)c2cccc(CNc3ccc(S(=O)(=O)O)cc3)c2C1=O
inhibition [2]: inactive
Ki [3]: 42 µM
Ki (Thymidylate synthase [4]): 33 µM

Cc1cccc2c1C(=O)N(c1ccc(-n3ccnc3)cc1)C2=O
Ki (Thymidylate synthase [5]): 33 µM
Ki (Thymidylate synthase [7]): 206 µM
Ki (Thymidylate synthase [4]): 34 µM

CN1C(=O)c2cccc(CBr)c2C1=O
inhibition (Thymidylate synthase [1]): inactive
inhibition [2]: inactive
Ki (Thymidylate synthase [4]): 95 µM

Cc1cccc2c1C(=O)N(c1ccc(C#N)cc1)C2=O
inhibition (Thymidylate synthase [1]): inactive
Ki (Thymidylate synthase [5]): 8 µM
Ki [3]: 31 µM
Ki (Thymidylate synthase [4]): 22 µM

CN1C(=O)c2cccc(CNc3ccc(C(=O)O)cn3)c2C1=O
inhibition (Thymidylate synthase [1]): inactive
inhibition [2]: inactive
Ki (Thymidylate synthase [4]): 27 µM

CC(=O)c1ccc(N2C(=O)c3cccc(C)c3C2=O)cc1
inhibition (Thymidylate synthase [1]): inactive
inhibition [2]: inactive
Ki [3]: 41 µM
Ki (Thymidylate synthase [4]): 6 µM

CN1C(=O)c2cccc(CNc3ccc(C#N)cc3)c2C1=O
inhibition (Thymidylate synthase [1]): inactive
inhibition [2]: inactive
Ki (Thymidylate synthase [4]): 51 µM
